According to patent publication US20260271924A1, “COMPOSITIONS FOR MODULATING PLANT GROWTH AND STRESS TOLERANCE, AND METHODS OF USE THEREOF” (The Regents of the University of California, priority 2023, published 2026):
Entries after “also recorded” stand apart in the source; their conditions may differ.

Columns and labels:
[1] = tested on: root meristem and mature cells; test: Aconitate treatment of roots; type: in vivo; settings: treatment with aconitate
Arabidopsis [2] = test: Arabidopsis root growth under itaconate combined with stress agents or sucrose; type: in vivo, Arabidopsis thaliana; settings: 50 mM NaCl; 100 mM Mannitol
Method: (§1) Plant Growth. For the Arabidopsis treatments, compounds were added to sterile ½× Murashige and Skoog (MS) plant growth media, and the pH was adjusted to 5.7 using potassium hydroxide. Seeds were sterilized using 20% bleach and sowed on the treated plant growth media. Plants were incubated in a 16 h/8 h day/night cycle growth chamber at 22° C. for 7-14 days prior to phenotyping. For the maize treatments, compounds were added to water, and the pH was adjusted to 5.7 using potassium hydroxide. Maize seeds were sterilized using 20% bleach and grown in large size seed germination pouches (see, e.g., mega-international.com) with the treatment. Plants were incubated in a 16 h/8 h day/night cycle growth chamber at 28° C. night/21° C. day for 5 days prior to phenotyping.

maize = test: Maize seedling growth under treatment in seed germination pouches; type: in vivo
Method: as §1

Arabidopsis [3] = test: Arabidopsis seedling growth / primary root length on treated ½× MS media; type: in vivo, Arabidopsis thaliana
Method: as §1
Stock Solutions. 100 mM stock solutions of the various metabolites and itaconate were produced. Metabolites were dissolved using Milli-Q (MQ) water and the pH was adjusted to 5.7-5.8 using 1M KOH. The Ocyl-itaconate stock solution was dissolved in dimethyl sulfoxide (DMSO). Arabidopsis seeds were sterilized using 20% bleach and allowed to mix for 7 minutes. After mixing, seeds were rinsed with sterilized water 6 times. Sterilized seedlings were then placed on media filled square plates. Micropore tape was used to wrap the plates and aluminum foil was used to cover plates, before stratifying for 2 days in a 4° C. chamber. After stratification, seedlings were placed in 22° C. light chamber at intensity 625 lux for 7 days before scanning. All quantifications of the seedlings were performed on FIJI Image J. Seedlings with interesting phenotypes were then transferred to soil in 22° C. conditions with light intensity 625 lux.

pCYCB1; 1-CYCB1; 1-GFP = test: Cell cycle reporter line imaging; type: in vivo, Arabidopsis thaliana; settings: 50 μM 4-OI; compared to the control
Excerpt: (§2) Confocal Images. For Arabidopsis, most of the roots were stained by PI (Propidium iodide). Hormone reporter lines (GFP, 488 nm), hydrogen peroxide sensor lines (GFP, 488 nm; CFP, 408 nm) (see, Shi et al., Nat. Commun. 13:5040, 2022), ATP sensor lines (DeCol et al., eLife, 6:e26770, 2017) were observed under a Leica SP8 confocal microscope (CFP, 439 nm; VENUS, 516 nm).

6×ABRE-R:erGFP = test: ABA signaling reporter line imaging; type: in vivo, Arabidopsis thaliana; settings: 4-OI treatment
Excerpt: as §2

TCSn-GFP = test: Cytokinin signaling reporter line imaging; type: in vivo, Arabidopsis thaliana
Excerpt: as §2

DR5-GFP = test: Auxin reporter line imaging; type: in vivo, Arabidopsis thaliana; settings: 4-OI treatment; compared to the control
Excerpt: as §2

pPIN1-PIN1-GFP = test: Auxin transport reporter line imaging; type: in vivo, Arabidopsis thaliana; settings: 4-OI treatment
Excerpt: as §2

ATP levels = test: Fluorescent ATP reporter line imaging; type: in vivo, Arabidopsis thaliana; settings: 4-OI; meristem zone
Excerpt: as §2

superoxide = test: NBT staining of Arabidopsis roots (ROS); type: in vivo, Arabidopsis thaliana; settings: NBT and H2DCFDA staining; 1 mM itaconate, 50 μM 4-OI
Method: ROS staining. For ROS staining, superoxides were detected using NBT; and hydrogen peroxide was detected using 2′,7′-dichlorodihydrofluorescein diacetate (H2DCFDA).
NBT staining procedures were carried out as described in Kumar et al., Bio-protcol, 4:e1108, 2014. Briefly, a 0.2% solution of NBT was made in a 50 mM sodium phosphate buffer. This solution was used to soak seedlings for 2 minutes in the dark and was then rinsed using deionized (DI) water. Images were taken on a with a 1× objective with a Nikon SMZ1270 Stereo microscope.

O=C(O)/C=C(/CC(=O)O)C(=O)O [aconitate]
length of mature cells [1]: increased the length of mature cells
meristem cell number [1]: inhibited meristem cell number

OC[C@@H](O)[C@@H](O)[C@H](O)[C@H](O)CO [mannitol]
root growth under stress agent alone (Arabidopsis [2]): decrease root growth

[Cl-].[Na+] [NaCl, sodium chloride]
root growth under stress agent alone (Arabidopsis [2]): decrease root growth

C=C(CC(=O)OCCCCCCCC)C(=O)O [4-OI, 4-octyl itaconate]
maize root growth (maize; 50 μM 4-OI for 5 days): enhanced maize root growth
maize shoot growth (maize; 50 μM 4-OI for 5 days): without affecting shoot growth
Arabidopsis growth (Arabidopsis [3]; 4-OI, 4 day old seedlings treated for 3 days): inhibits Arabidopsis growth in a dose-dependent manner
plant growth (Arabidopsis [3]; Arabidopsis, 50 μM 4-OI): nearly arrested plant growth
root gravitropic orientation (Arabidopsis [3]; Arabidopsis, 4-OI (50 μM)): roots lose their gravitropic orientation; also recorded: defective gravitropic phenotype
number of actively dividing cells (pCYCB1; 1-CYCB1; 1-GFP): significant reduction
6×ABARE-R:erGFP intensity in the roots (6×ABRE-R:erGFP): induces
TCSn-GFP signal in the QC (TCSn-GFP; 4-OI treatment): increases the signal in the QC
TCSn-GFP intensity in the columella (TCSn-GFP; itaconate or 4-OI treatment): decrease; also recorded: reduces
DR5-GFP fluorescent intensity (DR5-GFP): significantly induced; also recorded: is increased
pPIN1-PIN1-GFP fluorescent intensity and area (pPIN1-PIN1-GFP): reduces both the pPIN1-PIN1-GFP fluorescent intensity and area
ATP levels (ATP levels): increased ATP levels
ROS levels in Arabidopsis roots (superoxide): decrease in ROS levels; also recorded: repress

C=C(CC(=O)O)C(=O)O [itaconate]
increased growth (maize; maize treated with itaconate, p=0.01): 30%
decreased growth (Arabidopsis [3]; Arabidopsis, same concentration of itaconate as maize, p<0.0001): 25%

C#CCCCCCCOC(=O)CC(=C)C(=O)O [ITalk, itaconate-alkyne, reference compound]
phenotype induced by ITalk treatment (Arabidopsis [3]; Arabidopsis, 1 μM and 10 μM iTalk): closely resembles that of 4-OI

CC(CC(=O)O)C(=O)O (stereo not shown) [2-methyl succinate, reference compound]
impact on Arabidopsis (primary root length) (Arabidopsis [3]; 0.5 mM 2-methyl succinate): does not impact Arabidopsis
impact on Arabidopsis (primary root length) (Arabidopsis [3]; 2 mM 2-methyl succinate): does not impact Arabidopsis
